Values quoted from earlier work, collected in publication PMC9897045 (ACS Omega, 2023).
Read-outs that look alike come from different tables or passages of the source.

Key:
[1] = system: main protease (Mpro, 3CLpro, nsp5); details: read-out: EC50 against main protease (Mpro)

Cn1cnc(Cn2c(=O)[nH]/c(=N\c3cc4cn(C)nc4cc3Cl)n(Cc3cc(F)c(F)cc3F)c2=O)n1 [S-217622, (6E)-6-[(6-chloro-2-methyl-2H-indazol-5-yl)imino]-3-[(1-methyl-1H-1,2,4-triazol-3-yl)methyl]-1-(2,4,5-trifluorobenzyl)-1,3,5-triazinane-2,4-dione]
EC50 (SARS-CoV-2; read-out: EC50 against SARS-CoV-2, range over strains, CPE EC50): 290 to 500 nM | EC50 (SARS-CoV-2; read-out: EC50 against SARS-CoV-2 Alpha strain, strain QK002): 330 nM | EC50 (SARS-CoV-2; read-out: EC50 against SARS-CoV-2 Beta strain, strain TY8-612): 400 nM | EC50 (SARS-CoV-2; read-out: EC50 against SARS-CoV-2 Delta strain, strain TY11-927-P1): 410 nM | EC50 (SARS-CoV-2; read-out: EC50 against SARS-CoV-2 Gamma strain, strain TY7-501): 500 nM | EC50 (SARS-CoV-2; read-out: EC50 against SARS-CoV-2 Omicron strain, strain TY38-873): 290 nM | EC50 [1]: 13 nM
